{"source": "patent US20230076977A1", "about": "“UTROPHIN UPREGULATION COMPOUNDS FOR DUCHENNE MUSCULAR DYSTROPHY THERAPY” (THE TRUSTEES OF THE UNIVERSITY OF PENNSYLVANIA, priority 2020, published 2023)", "key": {"[1]": {"system": "5′- and 3′-UTRs of human utrophin", "assay": "Screening assay: C2C12 stable reporter line, CMV-driven luciferase flanked by utrophin 5′ and 3′ UTRs", "format": "cell-based", "conditions": "for EC50: C2C12", "experimental": "(§1) The construct for the HTS assay was generated by cloning the 5′- and 3′-UTRs of human utrophin into pGL4:50-hygro (Promega, Madison, Wis.) at the 5′ and 3′ of the luciferase coding sequence and has been described previously by Moorwood. […] For the counterscreening assay, the pGL4:50-hygro plasmid was used alone. Low passage C2C12 cells obtained from ATCC were transfected with either constructs, stably selected with 500 μg/mL hygromycin and subcloned using two rounds of serial dilutions to isolate single cell-derived colonies in a 96 wells plate format. […] The selected clones were cultured in presence of 100 μg/mL hygromycin B and were transferred to the HTS Facility at the University of Pennsylvania for implementation into a 384-wells format suitable for HTS.\n(§2) The construct for generating the screening C2C12 cell line carrying the 5′ and 3′UTR of the human utrophin gene is described by Moorwood. […] Some compounds could increase light emission independently from the 5′ and 3′UTR regions, i.e., by activating the CMV promoter or increasing overall mRNA synthesis. Therefore, in order to distinguish such compounds, a counterscreening cell line stably expressing only the CMV-driven luciferase gene was generated (FIG. 1A). To determine optimal conditions for the implementation in a 384-wells high-throughput format, evaluated were DMSO tolerance, optimal cell density and incubation time (FIG. 5A-5C).\n(§3) A first criterion for evaluating the performance of the selected hits was whether their activity was dose-dependent. After performing a dose-response analysis (5 nM to 10 μM) of each hit in the screening cell line, a clustering approach was applied (complete linkage with Euclidean distance measurement) to highlight similarities between compounds profiles. […] By modeling each dose-response trace with a 4-parameter logistic model applied to the Z— score values (FIG. 2B), the EC50 of each molecule was calculated.\n(§4) Cells were allowed to attach overnight at 37° C., 5% CO2 in a humidified chamber. […] Compounds were added to a final concentration of 1 μM and 100 nM in 0.2% DMSO. Columns 1 and 23 were treated with 0.2% DMSO (negative control). Columns 2 and 24 were treated with 100 nM Panobinostat (positive control). Cells were incubated for 24 hours at 37° C., 5% CO2. […] Luminescence was measured on an EnVisionXcite Multilabel Plate Reader (PerkinElmer), using ultrasensitive luminescence measurement technology."}, "[2]": {"system": "CMV-driven luciferase gene", "assay": "Counterscreening assay: C2C12 line stably expressing only the CMV-driven luciferase gene", "format": "cell-based", "conditions": "Mus musculus, C2C12, read-out: counterscreening EC50", "experimental": "as §1, §2, §3, §4"}, "[3]": {"system": "utrophin protein in C2C12 cells", "assay": "Utrophin western blot in C2C12 cells (endogenous protein expression)", "format": "cell-based", "conditions": "24 hours", "experimental": "The 10 highest scoring hits were selected from this subset for performing in vitro validation. C2C12 cells were treated with 1 μM concentrations of the selected hits for 24 hours, followed by western blot evaluation of utrophin levels as an orthogonal assay for endogenous protein expression. […] Panobinostat, an FDA-approved non-selective HDAC inhibitor for cancer treatment, increased utrophin levels by 1.9-fold. […] AR-42 (S2244), another HDAC inhibitor with proven preclinical efficacy in contrasting cancer-induced cachexia, increased utrophin by 2.3-fold and had the second highest H2LPS. Consistent with the calculated HPS, the highest scoring hit, TSA (S1045), had also the highest magnitude of protein upregulation (3.9-fold) followed by PCI-24781 (S1090; 3.7-fold). Importantly, high H2LPS was generally correlated with confirmation in WB assays (FIG. 2E).\n(§5) Total RNA was extracted from TA muscle samples with RNAeasy kit (Qiagen, USA) and reverse transcribed with random hexamers. qPCR was performed using Taqman probes for Utrophin (Assay ID Mm01168846_ml) and β-actin. Muscle tissue samples were lysed with TNEC buffer (50 mM Tris-HCl, pH 8.0; 150 mMNaCl; 1% NP40; 2 mM EDTA) buffer containing complete protease inhibitor cocktail (Roche, Basel, Switzerland). C2C12 cells were treated for 24 h with 1 μM concentrations of compounds from a fresh batch (3 wells for each compound), and cell samples were lysed with RIPA buffer with protease inhibitor cocktail. The experiment was repeated three independent times. 50-75 μg of total proteins from muscle tissues, or 4 μg of cell protein extracts, were resolved on a 3-8% Tris-Acetate gradient gel (NuPage; Invitrogen), transferred to PDVF or nitrocellulose membranes and mouse monoclonal anti-utrophin antibody MANCHO3 clone 8A4 (developed by Glenn E. Morris and obtained from the Developmental Studies Hybridoma Bank, Iowa) or a custom-made anti-UtrophinA rabbit polyclonal antibody (muscle tissue samples) generated and described previously by Chakkalakal et al., Nucleic Acids Res. 36, 826-838 (2008), which is incorporated herein by reference in its entirety.\n(§6) TSA is a broad-spectrum HDAC inhibitor. […] To further validate in vitro the dose-dependent capacity of TSA to upregulate utrophin protein, C2C12 cells were treated for 24 hours with increasing concentrations of TSA (from 1 nM to 10 μM) (FIG. 3B). Consistent with the single-dose western blot validation experiments, utrophin protein levels were increased 4.3 times by 1 μM TSA. […] Some cytotoxicity was evident for TSA concentrations higher than 1 μM."}, "mdx mouse model of DMD": {"system": "mdx mouse model of DMD", "assay": "Preclinical TSA treatment in the mdx mouse model of DMD", "format": "in vivo", "experimental": "Four-week-old mdx mice (C57BL/10ScSn-DMDmdx/J) were injected intraperitoneally on alternate days with Trichostatin A (Wako Chemicals USA-Inc, Richmond, Va.; dose 30 μg/kg), or an equal volume of sterile PBS for three months. All animal experiments were approved by the Institutional Animal Care and Use Committee at the University of Pennsylvania School of Medicine.\nFunctional in vivo and ex vivo analyses including rotarod, EDL strength, and sensitivity to damage induced by lengthening contractions (ECC), were performed as described by Krag, et al. Proc. Natl. Acad. Sci. U.S.A. 101, 13856-13860 (2004) and Bogdanovich, S. et al. Functional improvement of dystrophic muscle by myostatin blockade. Nature 420, 418-421 (2002), each of which is incorporated herein by reference in its entirety. Following the procedure, muscles were flash-frozen in liquid nitrogen-cooled isopentane and stored at −80° C.\nas §5\nTo test the ability of TSA to increase utrophin in vivo and improve the dystrophic phenotype, 4 week-old mdx mice were treated with i.p. injections of 30 μg/kg body weight TSA, on alternating days for a total of 3 months."}, "C2C12 cells": {"system": "C2C12 cells", "assay": "Cytotoxicity in C2C12 cells treated with increasing TSA concentrations", "format": "cell-based", "conditions": "24 hours", "experimental": "as §6"}, "[4]": {"system": "HDAC activity and proliferation of cancer cells", "conditions": "depending on the particular cell line; cited from earlier work"}, "[5]": {"conditions": "ex vivo EDL, treated mdx, normalized by cross sectional area"}, "[6]": {"conditions": "treated mdx, TSA 30 μg/kg i.p. alternate days, 3 months"}}, "note": "Read-outs that look alike come from different tables or passages of the source."}
{"smiles": "CC(/C=C/C(=O)NO)=C\\[C@@H](C)C(=O)c1ccc(N(C)C)cc1", "note": "[Trichostatin A]", "values": [{"measurement": "EC50", "setting": "[1]; 4-parameter logistic fit of Z-scores, 24 h, no unit in table (0.013 = 13 nM), read-out: EC50 screen", "value": 13, "unit": "nM"}, {"measurement": "EC50", "setting": "[1]; read-out: EC50 score (1 to 4)", "value": "< 50", "unit": "nM"}, {"measurement": "EC50", "setting": "[1]; read-out: screening EC50", "value": 13, "unit": "nM"}, {"measurement": "Upper-lower limits scoren", "setting": "[1]; difference between upper and lower boundaries of the fitted dose-response screening curve", "value": 34.53}, {"measurement": "Fold diff", "setting": "[1]; fold difference between the EC50s of screening and counterscreening", "value": 119.82}, {"measurement": "EC50", "setting": "[2]", "value": 1300, "unit": "nM"}, {"measurement": "Utrophin protein levels, fold increase", "setting": "[3]; 1 μM, normalized to tubulin, vs 0.1% DMSO control", "value": 3.9, "unit": "fold"}, {"measurement": "EC50", "setting": "[3]; Mus musculus, C2C12, 1 nM to 10 μM, read-out: EC50 for utrophin protein levels", "value": 88, "unit": "nM"}, {"measurement": "utrophin protein levels increased", "setting": "[3]; dose-response western blot, 1 μM TSA", "value": 4.3, "unit": "times"}, {"measurement": "ECC force drop 1-5", "setting": "mdx mouse model of DMD; EDL, 5 consecutive eccentric contractions, treated mdx", "value": "25.81 ± 4.46", "unit": "%"}, {"measurement": "less force lost than control-treated muscles after the 5th ECC", "setting": "mdx mouse model of DMD; EDL, series of 5 ECCs, FIG. 4G", "value": 37, "unit": "%"}, {"measurement": "Utrophin mRNA levels increased", "setting": "mdx mouse model of DMD; TA muscle, qPCR, after TSA treatment", "value": 4.9, "unit": "fold"}, {"measurement": "utrophin protein levels increased", "setting": "mdx mouse model of DMD; TA muscle, western blot, after TSA treatment", "value": 2, "unit": "fold"}, {"measurement": "myostatin or follistatin gene expression", "setting": "mdx mouse model of DMD; TA muscles, FIG. 7", "value": "did not cause changes"}, {"measurement": "lower number of centrally nucleated fibers", "setting": "mdx mouse model of DMD; TSA-treated EDL muscles vs control", "value": 30, "unit": "%"}, {"measurement": "isometric twitch and tetanic strength of EDL muscles", "setting": "mdx mouse model of DMD; before and after normalization by crossectional area", "value": "significantly higher"}, {"measurement": "effect on body weight or the wet weight of skeletal muscles and organs", "setting": "mdx mouse model of DMD; compared to control-treated mice", "value": "did not affect"}, {"measurement": "EDL Tetanic force", "setting": "mdx mouse model of DMD; ex vivo EDL, treated mdx", "value": "351.9 ± 16.61", "unit": "mN"}, {"measurement": "EDL Twitch force", "setting": "mdx mouse model of DMD; ex vivo EDL, treated mdx", "value": "64.19 ± 4.22", "unit": "mN"}, {"measurement": "EDL Tetanic force (specific)", "setting": "mdx mouse model of DMD; [5]", "value": "166.0 ± 9.09", "unit": "mN/mm^2"}, {"measurement": "EDL Twitch force (specific)", "setting": "mdx mouse model of DMD; [5]", "value": "29.98 ± 1.84", "unit": "mN/mm^2"}, {"measurement": "serum creatine kinase or hydroxyproline content in TA and diaphragm muscles", "setting": "mdx mouse model of DMD; mouse, in vivo", "value": "No significant changes"}, {"measurement": "Diaphragm Hydroxyproline Diaphragm", "setting": "mdx mouse model of DMD; treated mdx", "value": "3.33 ± 0.22", "unit": "µg/mg"}, {"measurement": "Diaphragm Hydroxyproline TA", "setting": "mdx mouse model of DMD; treated mdx", "value": "0.90 ± 0.06", "unit": "µg/mg"}, {"measurement": "EDL CNF (centrally nucleated fibers)", "setting": "mdx mouse model of DMD; treated mdx", "value": "24.62 ± 2.30", "unit": "%"}, {"measurement": "EDL CSA (cross sectional area)", "setting": "mdx mouse model of DMD; treated mdx", "value": "2.20 ± 0.13", "unit": "mm^2"}, {"measurement": "EDL L0 (muscle length)", "setting": "mdx mouse model of DMD; treated mdx", "value": "12.16 ± 0.20", "unit": "mm"}, {"measurement": "Serum CK", "setting": "mdx mouse model of DMD; treated mdx", "value": "7450 ± 2381", "unit": "U/L"}, {"measurement": "EDL muscle weight", "setting": "mdx mouse model of DMD; [6]", "value": "17.5 ± 0.4", "unit": "mg"}, {"measurement": "Gastrocnemius muscle weight", "setting": "mdx mouse model of DMD; [6]", "value": "213.0 ± 11.0", "unit": "mg"}, {"measurement": "Heart weight", "setting": "mdx mouse model of DMD; [6]", "value": "159.7 ± 5.2", "unit": "mg"}, {"measurement": "Kidneys weight", "setting": "mdx mouse model of DMD; [6]", "value": "532.3 ± 25.8", "unit": "mg"}, {"measurement": "Liver weight", "setting": "mdx mouse model of DMD; [6]", "value": "1179.0 ± 36.4", "unit": "mg"}, {"measurement": "Quadriceps muscle weight", "setting": "mdx mouse model of DMD; [6]", "value": "234.6 ± 8.7", "unit": "mg"}, {"measurement": "Soleus muscle weight", "setting": "mdx mouse model of DMD; [6]", "value": "12.8 ± 0.4", "unit": "mg"}, {"measurement": "Tibialis Anterior (TA) muscle weight", "setting": "mdx mouse model of DMD; [6]", "value": "66.1 ± 1.5", "unit": "mg"}, {"measurement": "Body weight", "setting": "mdx mouse model of DMD; treated mdx, TSA 30 μg/kg i.p. alternate days, 3 months, mean ± SEM", "value": "30.2 ± 0.5", "unit": "g"}, {"measurement": "rotarod test performance", "setting": "mdx mouse model of DMD; treated vs control mdx", "value": "performed significantly better than control mdx"}, {"measurement": "concentrations at which some cytotoxicity was evident", "setting": "C2C12 cells", "value": "higher than 1 μM"}, {"measurement": "IC50 in vitro", "setting": "[4]", "value": "nM to μM range"}]}
